Assay results taken from US20020137929A1, “1 - (3-heterocyclylphenyl) isothiourea, -isourea, -guanidine and -amidine herbicidal agents” (Intellectual Property Department, BASF Aktiengesellschaft, priority 1998, published 2002).

Experiments:
ORYSAT (Rice, Tebonnet) [1] = assay: Preemergence herbicidal evaluation; format: in vivo, Oryza sativa, (L.) Tebonnet; conditions: rated 4-5 weeks after treatment
Outline: (§1)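 Each species is sown separately in potting soil over roughly an inch of soil before any emergence. The soil surface then receives an aqueous acetone spray delivering about 0.0156 to 0.500 kg/ha of compound. After four to five weeks, injury is scored from 0 to 9 relative to a control.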

GALAP (Galium) = assay: Postemergence herbicidal evaluation; format: in vivo, Galium aparine; conditions: postemergence
Outline: (§2)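 Young plants, roughly two weeks from seeding, receive the active ingredient as a sprayed dispersion (acetone/water 50/50, 0.5% TWEEN 20) at 40 psi. Doses span about 0.0156 to 0.500 kg/ha. A visual score from 0 to 9 compares treated with control plants four to five weeks on.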

AMBEL (Ragweed, Common) = assay: Postemergence herbicidal evaluation; format: in vivo, Ambrosia artemisifolia; conditions: postemergence
Outline: as §2

ABUTH (Velvetleaf) [2] = assay: Preemergence herbicidal evaluation; format: in vivo, Abutilon theophrasti; conditions: rated 4-5 weeks after treatment
Outline: as §1

ABUTH (Velvetleaf) [3] = assay: Postemergence herbicidal evaluation; format: in vivo, Abutilon theophrasti; conditions: postemergence
Outline: as §2

MOOVA (Monochoria) = assay: Preemergence weed control under flooded paddy conditions; format: in vivo, Monochoria vaginalis; conditions: rated 3-4 weeks after treatment
Outline: (§3)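 Visual injury scored 0-9 against control three to four weeks post-treatment, greenhouse-grown. Application: acetone/water (50/50) solutions dosed directly into flood water (1.5-3 cm over silt loam, planted top 0.5 cm), roughly 0.0313 to 0.500 kg/ha active ingredient.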

CYPIR (Rice Flatsedge) = assay: as above; format: in vivo, Cyperus iria; conditions: rated 3-4 weeks after treatment
Outline: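 Ratings on a 0-9 visual scale cover stand, vigor, malformation, size, chlorosis and overall appearance relative to a control, taken three to four weeks post-treatment. Application was into flood water over freshly sown silt loam at roughly 0.0313 to 0.500 kg/ha.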

CASOB (Sicklepod) = assay: Preemergence herbicidal evaluation; format: in vivo, Cassia obtusifolia; conditions: rated 4-5 weeks after treatment
Outline: as §1

SETVI (Foxtail, Green) = assay: Postemergence herbicidal evaluation; format: in vivo, Setaria viridis; conditions: postemergence
Outline: as §2

[4] = tested on: IPOHE (Morningglory, Ivyleaf); assay: Postemergence herbicidal evaluation; format: in vivo, Ipomoea hederacea; conditions: postemergence
Outline: as §2

[5] = tested on: GLXMAW (Soybean, Williams); assay: Postemergence herbicidal evaluation; format: in vivo, Glycine max, (L.) Merr. cv Williams; conditions: postemergence
Outline: as §2

ECHCG (Barnyardgrass) = assay: Postemergence herbicidal evaluation; format: in vivo, Echinochloa crus-galli; conditions: postemergence
Outline: as §2

[6] = tested on: TRZAWR (Wheat, Winter, cv Riband); assay: Preemergence herbicidal evaluation; format: in vivo, Triticum aestivum; conditions: rated 4-5 weeks after treatment
Outline: as §1

[7] = tested on: CHEAL (Lambsquarters, Common); assay: Postemergence herbicidal evaluation; format: in vivo, Chenopodium album; conditions: postemergence
Outline: as §2

ORYSAT (Rice, Tebonnet) [8] = assay: Postemergence herbicidal evaluation; format: in vivo, Oryza sativa, (L.) Tebonnet; conditions: postemergence
Outline: as §2

[9] = tested on: GLXMAW (Soybean, Williams); assay: Preemergence herbicidal evaluation; format: in vivo, Glycine max, (L.) Merr. cv Williams; conditions: rated 4-5 weeks after treatment
Outline: as §1

[10] = tested on: SAGPY (Arrowhead (Pygmaea)); assay: Preemergence weed control under flooded paddy conditions; format: in vivo, Sagittaria pygmaea; conditions: rated 3-4 weeks after treatment
Outline: as §3

CCOC(=O)CN1C(=O)C(CC(=O)O)SC1=Nc1cc(-n2nc(C)n(C(F)F)c2=O)c(F)cc1Cl (stereo not drawn) [Compound 112, 2-{{2-Chloro-5-[4-(difluoromethyl)-4,5-dihydro-3-methyl-5-oxo-1H-1,2,4-triazol-1-yl]-4-fluorophenyl}imino}-4-oxo-3,5-thiazolidinediacetic acid, 3-ethyl ester]
Preemergence herbicidal rating ORYSAT (ORYSAT (Rice, Tebonnet) [1]; rate 0.0313 kg/ha): 0.0
Preemergence herbicidal rating ORYSAT (ORYSAT (Rice, Tebonnet) [1]; rate 0.0625 kg/ha): 0.0
Preemergence herbicidal rating ORYSAT (ORYSAT (Rice, Tebonnet) [1]; rate 0.1250 kg/ha): 0.0
Preemergence herbicidal rating ORYSAT (ORYSAT (Rice, Tebonnet) [1]; rate 0.2500 kg/ha): 2.0
herbicidal rating GALAP (GALAP (Galium); rate 0.0158 kg/ha): 0.0
herbicidal rating GALAP (GALAP (Galium); rate 0.0315 kg/ha): 2.0
herbicidal rating GALAP (GALAP (Galium); rate 0.0630 kg/ha): 2.0
herbicidal rating AMBEL (AMBEL (Ragweed, Common); rate 0.0158 kg/ha): 5.0
herbicidal rating AMBEL (AMBEL (Ragweed, Common); rate 0.0315 kg/ha): 9.0
herbicidal rating AMBEL (AMBEL (Ragweed, Common); rate 0.0630 kg/ha): 9.0
Preemergence herbicidal rating ABUTH (ABUTH (Velvetleaf) [2]; rate 0.0313 kg/ha): 0.0
Preemergence herbicidal rating ABUTH (ABUTH (Velvetleaf) [2]; rate 0.0625 kg/ha): 0.0
Preemergence herbicidal rating ABUTH (ABUTH (Velvetleaf) [2]; rate 0.2500 kg/ha): 1.0
herbicidal rating ABUTH (ABUTH (Velvetleaf) [3]; rate 0.0158 kg/ha): 9.0
herbicidal rating ABUTH (ABUTH (Velvetleaf) [3]; rate 0.0315 kg/ha): 9.0
herbicidal rating ABUTH (ABUTH (Velvetleaf) [3]; rate 0.0630 kg/ha): 9.0
MOOVA herbicidal effect rating (MOOVA (Monochoria); 0.0313 kg/ha): 9.0
MOOVA herbicidal effect rating (MOOVA (Monochoria); 0.0625 kg/ha): 9.0
MOOVA herbicidal effect rating (MOOVA (Monochoria); 0.1250 kg/ha): 9.0
MOOVA herbicidal effect rating (MOOVA (Monochoria); 0.2500 kg/ha): 9.0
CYPIR herbicidal effect rating (CYPIR (Rice Flatsedge); 0.0313 kg/ha): 0.0
CYPIR herbicidal effect rating (CYPIR (Rice Flatsedge); 0.0625 kg/ha): 3.0
CYPIR herbicidal effect rating (CYPIR (Rice Flatsedge); 0.1250 kg/ha): 6.0
CYPIR herbicidal effect rating (CYPIR (Rice Flatsedge); 0.2500 kg/ha): 7.0
Preemergence herbicidal rating CASOB (CASOB (Sicklepod); rate 0.0313 kg/ha): 0.0
Preemergence herbicidal rating CASOB (CASOB (Sicklepod); rate 0.0625 kg/ha): 0.0
Preemergence herbicidal rating CASOB (CASOB (Sicklepod); rate 0.1250 kg/ha): 0.0
Preemergence herbicidal rating CASOB (CASOB (Sicklepod); rate 0.2500 kg/ha): 0.0
herbicidal rating SETVI (SETVI (Foxtail, Green); rate 0.0158 kg/ha): 3.0
herbicidal rating SETVI (SETVI (Foxtail, Green); rate 0.0315 kg/ha): 9.0
herbicidal rating SETVI (SETVI (Foxtail, Green); rate 0.0630 kg/ha): 6.0
herbicidal rating IPOHE ([4]; rate 0.0158 kg/ha): 9.0
herbicidal rating IPOHE ([4]; rate 0.0315 kg/ha): 9.0
herbicidal rating IPOHE ([4]; rate 0.0630 kg/ha): 9.0
herbicidal rating GLXMAW ([5]; rate 0.0158 kg/ha): 5.5
herbicidal rating GLXMAW ([5]; rate 0.0315 kg/ha): 5.0
herbicidal rating GLXMAW ([5]; rate 0.0630 kg/ha): 6.0
herbicidal rating ECHCG (ECHCG (Barnyardgrass); rate 0.0158 kg/ha): 2.0
herbicidal rating ECHCG (ECHCG (Barnyardgrass); rate 0.0315 kg/ha): 4.0
herbicidal rating ECHCG (ECHCG (Barnyardgrass); rate 0.0630 kg/ha): 4.0
Preemergence herbicidal rating TRZAWR ([6]; rate 0.0313 kg/ha): 0.0
Preemergence herbicidal rating TRZAWR ([6]; rate 0.0625 kg/ha): 0.0
Preemergence herbicidal rating TRZAWR ([6]; rate 0.1250 kg/ha): 0.0
Preemergence herbicidal rating TRZAWR ([6]; rate 0.2500 kg/ha): 1.0
herbicidal rating CHEAL ([7]; rate 0.0158 kg/ha): 4.0
herbicidal rating CHEAL ([7]; rate 0.0315 kg/ha): 9.0
herbicidal rating CHEAL ([7]; rate 0.0630 kg/ha): 9.0
herbicidal rating ORYSAT (ORYSAT (Rice, Tebonnet) [8]; rate 0.0158 kg/ha): 2.0
herbicidal rating ORYSAT (ORYSAT (Rice, Tebonnet) [8]; rate 0.0315 kg/ha): 2.0
herbicidal rating ORYSAT (ORYSAT (Rice, Tebonnet) [8]; rate 0.0630 kg/ha): 2.5
Preemergence herbicidal rating GLXMAW ([9]; rate 0.0313 kg/ha): 0.0
Preemergence herbicidal rating GLXMAW ([9]; rate 0.0625 kg/ha): 1.0
Preemergence herbicidal rating GLXMAW ([9]; rate 0.1250 kg/ha): 3.0
Preemergence herbicidal rating GLXMAW ([9]; rate 0.2500 kg/ha): 3.0
SAGPY herbicidal effect rating ([10]; 0.0313 kg/ha): 6.0
SAGPY herbicidal effect rating ([10]; 0.0625 kg/ha): 7.0
SAGPY herbicidal effect rating ([10]; 0.1250 kg/ha): 7.0
SAGPY herbicidal effect rating ([10]; 0.2500 kg/ha): 7.0

C=CCN1C(=O)C(CC(=O)NS(=O)(=O)C(C)C)SC1=Nc1cc(-n2c(=O)cc(C(F)(F)F)n(C)c2=O)c(F)cc1Cl (stereo not drawn) [Compound 118, 3-Allyl-2-{{2-chloro-5-[3,6-dihydro-3-methyl-2,6-dioxo-4-(trifluoromethyl)-1(2H)-pyrimidinyl]-4-fluorophenyl}imino}-N-(isopropylsulfonyl)-4-oxo-5-thiazolidineacetamide]
Preemergence herbicidal rating ORYSAT (ORYSAT (Rice, Tebonnet) [1]; rate 0.0625 kg/ha): 0.0
Preemergence herbicidal rating ORYSAT (ORYSAT (Rice, Tebonnet) [1]; rate 0.1250 kg/ha): 0.0
Preemergence herbicidal rating ORYSAT (ORYSAT (Rice, Tebonnet) [1]; rate 0.2500 kg/ha): 0.0
herbicidal rating GALAP (GALAP (Galium); rate 0.0158 kg/ha): 0.0
herbicidal rating GALAP (GALAP (Galium); rate 0.0315 kg/ha): 0.0
herbicidal rating GALAP (GALAP (Galium); rate 0.0630 kg/ha): 1.0
herbicidal rating AMBEL (AMBEL (Ragweed, Common); rate 0.0158 kg/ha): 0.0
herbicidal rating AMBEL (AMBEL (Ragweed, Common); rate 0.0315 kg/ha): 2.0
herbicidal rating AMBEL (AMBEL (Ragweed, Common); rate 0.0630 kg/ha): 2.0
Preemergence herbicidal rating ABUTH (ABUTH (Velvetleaf) [2]; rate 0.0625 kg/ha): 9.0
Preemergence herbicidal rating ABUTH (ABUTH (Velvetleaf) [2]; rate 0.1250 kg/ha): 9.0
Preemergence herbicidal rating ABUTH (ABUTH (Velvetleaf) [2]; rate 0.2500 kg/ha): 7.0
herbicidal rating ABUTH (ABUTH (Velvetleaf) [3]; rate 0.0158 kg/ha): 0.0
herbicidal rating ABUTH (ABUTH (Velvetleaf) [3]; rate 0.0315 kg/ha): 4.0
herbicidal rating ABUTH (ABUTH (Velvetleaf) [3]; rate 0.0630 kg/ha): 9.0
herbicidal effect rating, MOOVA (MOOVA (Monochoria); 0.0313 kg/ha): 4.0
herbicidal effect rating, MOOVA (MOOVA (Monochoria); 0.0625 kg/ha): 4.0
herbicidal effect rating, MOOVA (MOOVA (Monochoria); 0.1250 kg/ha): 6.0
herbicidal effect rating, MOOVA (MOOVA (Monochoria); 0.2500 kg/ha): 7.0
herbicidal effect rating, CYPIR (CYPIR (Rice Flatsedge); 0.0313 kg/ha): 0.0
herbicidal effect rating, CYPIR (CYPIR (Rice Flatsedge); 0.0625 kg/ha): 0.0
herbicidal effect rating, CYPIR (CYPIR (Rice Flatsedge); 0.1250 kg/ha): 0.0
herbicidal effect rating, CYPIR (CYPIR (Rice Flatsedge); 0.2500 kg/ha): 0.0
Preemergence herbicidal rating CASOB (CASOB (Sicklepod); rate 0.0625 kg/ha): 0.0
Preemergence herbicidal rating CASOB (CASOB (Sicklepod); rate 0.2500 kg/ha): 4.0
herbicidal rating SETVI (SETVI (Foxtail, Green); rate 0.0158 kg/ha): 0.0
herbicidal rating SETVI (SETVI (Foxtail, Green); rate 0.0315 kg/ha): 0.0
herbicidal rating SETVI (SETVI (Foxtail, Green); rate 0.0630 kg/ha): 4.0
herbicidal rating IPOHE ([4]; rate 0.0158 kg/ha): 1.0
herbicidal rating IPOHE ([4]; rate 0.0315 kg/ha): 7.0
herbicidal rating IPOHE ([4]; rate 0.0630 kg/ha): 9.0
herbicidal rating GLXMAW ([5]; rate 0.0158 kg/ha): 4.5
herbicidal rating GLXMAW ([5]; rate 0.0315 kg/ha): 5.0
herbicidal rating GLXMAW ([5]; rate 0.0630 kg/ha): 6.0
herbicidal rating ECHCG (ECHCG (Barnyardgrass); rate 0.0158 kg/ha): 0.0
herbicidal rating ECHCG (ECHCG (Barnyardgrass); rate 0.0315 kg/ha): 1.0
herbicidal rating ECHCG (ECHCG (Barnyardgrass); rate 0.0630 kg/ha): 1.0
Preemergence herbicidal rating TRZAWR ([6]; rate 0.0625 kg/ha): 0.0
Preemergence herbicidal rating TRZAWR ([6]; rate 0.1250 kg/ha): 0.0
Preemergence herbicidal rating TRZAWR ([6]; rate 0.2500 kg/ha): 0.0
herbicidal rating CHEAL ([7]; rate 0.0158 kg/ha): 0.0
herbicidal rating CHEAL ([7]; rate 0.0315 kg/ha): 0.0
herbicidal rating CHEAL ([7]; rate 0.0630 kg/ha): 5.0
herbicidal rating ORYSAT (ORYSAT (Rice, Tebonnet) [8]; rate 0.0158 kg/ha): 2.0
herbicidal rating ORYSAT (ORYSAT (Rice, Tebonnet) [8]; rate 0.0315 kg/ha): 2.0
herbicidal rating ORYSAT (ORYSAT (Rice, Tebonnet) [8]; rate 0.0630 kg/ha): 2.0
Preemergence herbicidal rating GLXMAW ([9]; rate 0.0625 kg/ha): 1.0
Preemergence herbicidal rating GLXMAW ([9]; rate 0.1250 kg/ha): 0.0
Preemergence herbicidal rating GLXMAW ([9]; rate 0.2500 kg/ha): 3.0
herbicidal effect rating, SAGPY ([10]; 0.0313 kg/ha): 0.0
herbicidal effect rating, SAGPY ([10]; 0.0625 kg/ha): 0.0
herbicidal effect rating, SAGPY ([10]; 0.1250 kg/ha): 3.0
herbicidal effect rating, SAGPY ([10]; 0.2500 kg/ha): 3.0
